A short description of data set [1]: hydrogenation of ring-opening copolymer with the complex as catalyst (Example 8). The following applies: 0.06 parts complex, hydrogen 100 kg/cm^2, 165° C., 3 hours. The text has this: A ring-opening copolymer solution was obtained by carrying out the same polymerization operations as those in Example 4 except that 190 parts of 8-methyl-8-methoxycarbonyltetracyclo[4.4.0.1^2,5.1^7,10]-3-dodecene and 60 parts of spiro[fluorene-9,8′-tricyclo[4.3.0.1^2,5]dec-3-ene were used in place of 250 parts of 8-methyl-8-methoxycarbonyltetracyclo[4.4.0.1^2,5.1^7,10]-3-dodecene. The polymerization conversion rate in this polymerization reaction was 96%.
(§1) Into an autoclave was charged 1000 parts of the ring-opening copolymer solution thus obtained and to the ring-opening polymer solution was added a toluene solution of 1.0% by weight of the ruthenium hydride complex obtained in Example 2 in an amount (6 parts) so that the amount of added complex was 0.06 parts. The hydrogenation reaction was carried out by heating and stirring for 3 hours under the conditions of a hydrogen gas pressure of 100 kg/cm^2 and a reaction temperature of 165° C. The resulting reaction solution (hydrogenated polymer solution) was cooled and then the hydrogen gas was released. […] This polymer was analyzed by ^1H-NMR and the hydrogenation rate was determined by the ratio of the integral value of the saturated hydrocarbons at 0.6 to 2.5 ppm to the integral value of the unsaturated hydrocarbons at 5.0 to 5.6 ppm.

A short description of data set [2]: autoclave hydrogenation of DNM/DCP polymer (Example 9 procedure). How it is done:
(§2) ^1H-NMR was measured by using AVANCE500 manufactured by BRUKER as a nuclear magnetic resonance spectrometer (NMR) with chloroform-d as a measuring solvent. The composition of a monomer was calculated from the integral value of the vinylene group at 5.1 to 5.8 ppm, the methoxy group at 3.7 ppm and the aliphatic proton at 0.6 to 2.8 ppm, and then the hydrogenation rate was calculated.
Into a reaction vessel substituted with nitrogen were charged 75 parts by weight of 8-methoxycarbonyl-8-methyltetracyclo[4.4.0.1^2,5.1^7,10]-3-dodecene (DNM) and 25 parts by weight of dicyclopentadiene (DCP) as monomers, 6 parts by weight of 1-butene as a molecular weight adjusting agent and 170 parts by weight of toluene, and the resultant mixture was heated to 100° C. To this mixture were added 0.005 parts by weight of triethylaluminum, 0.005 parts by weight of methanol-modified WCl6 (anhydrous methanol:PhPOCl2:WCl6=103:630:427 (weight ratio)), and the reaction was carried out at 100° C. for one hour to obtain a polymer. The conversion was 100%.
Next, into a pressure-proof autoclave with a design temperature of 185° C. and a capacity of 1.25 m^3 were charged a solution of the polymer obtained above equivalent to 350 kg of the solid component and as a hydrogenation catalyst 0.0335 parts by weight of RuH(CO)[P(C6H5)]2(OCO-p-Ph-n-C5H13) of which saturation solubility to toluene at 25° C. is 5% by weight based on 100 parts by weight equivalent to the polymer solid component conversion, and the autoclave was heated to 100° C. Then, hydrogen gas was introduced to the autoclave to increase the pressure to 10 MPa. The maximum attained temperature during the hydrogenation reaction was 179° C. The theoretical value of generated heat was calculated from DNM=129.3 kcal/kg and DCP=452.3 kcal/kg. Thereafter, the reaction was carried out at 165° C. for 3 hours while maintaining the pressure at 10 MPa to obtain a hydrogenated product. […]

Data set [3] is described as follows: solubility of the metal hydride complex to toluene. Type of data set: physicochemical.
Data set [4] in a line: autoclave hydrogenation of DNM/DCP/NB polymer (Example 10 procedure). The following applies: gelation inhibitor. How it is done:
as §2
A hydrogenated product was obtained in the same way as Example 1 except that in Example 9, there were charged 65 parts by weight of 8-methoxycarbonyl-8-methyltetracyclo[4.4.0.1^2,5.1^7,10]-3-dodecene (DNM), 25 parts by weight of dicyclopentadiene (DCP) and 10 parts by weight of norbornene (NB) as monomers and 190 parts by weight of toluene to synthesize a polymer, and the charged amount equivalent to the solid component of the polymer was changed to 330 kg in the hydrogenation reaction. […] The maximum attained temperature during the hydrogenation reaction was 179° C. The theoretical value of generated heat was calculated from DNM=129.3 kcal/kg, DCP=452.3 kcal/kg and NB=319.3 kcal/kg.

Data set [5] is described as follows: hydrogenation of ring-opening polymer with the complex as hydrogenation catalyst (Example 4 procedure). The following applies: 0.06 parts complex per 1000 parts polymer solution, hydrogen 100 kg/cm^2, 165° C., 3 hours, 1H-NMR. How it is done:
Into a reaction vessel substituted with nitrogen were charged 250 parts of 8-methyl-8-methoxycarbonyltetracyclo[4.4.0.1^2,5.1^7,10]-3-dodecene, 18 parts of 1-hexene (molecular weight adjusting agent) and 750 parts of toluene and the resulting solution was heated to 80° C. Thereafter, to the solution in the reaction vessel were added 0.62 parts of a toluene solution of triethylaluminum (1.5 mol/L) as a polymerization catalyst and 3.7 parts of a toluene solution (concentration: 0.05 mol/L) of tungsten hexachloride modified with t-butanol and methanol (t-butanol:methanol:tungsten=0.35 mol:0.3 mol:1 mol). The ring-opening copolymerization reaction was carried out by heating and stirring this system at 80° C. for 3 hours to obtain a ring-opening metathesis polymer solution of 8-methyl-8-methoxycarbonyltetracyclo[4.4.0.1^2,5.1^7,10]-3-dodecene. The polymerization conversion rate in this polymerization reaction was 97%.
Into an autoclave was charged 1000 parts of the ring-opening polymer solution obtained above and to this solution was added as a hydrogenation catalyst a toluene solution of 0.5% by weight of the ruthenium hydride complex obtained in Example 1 in an amount (12 parts) so that the amount of added complex was 0.06 parts. The hydrogenation reaction was carried out by heating and stirring for 3 hours under the conditions of a hydrogen gas pressure of 100 kg/cm^2 and a reaction temperature of 165° C. The resulting reaction solution (hydrogenated polymer solution) was cooled and then the hydrogen gas was released. This reaction solution was poured into a large amount of methanol to separate and collect a coagulated substances which was dried to obtain a hydrogenated polymer.

Data set [6] in a line: hydrogenation of ring-opening copolymer with the complex as catalyst (Example 7). The following applies: 0.06 parts complex, hydrogen 100 kg/cm^2, 165° C., 3 hours.
Excerpt: A ring-opening polymer solution was obtained by carrying out the same polymerization operations as those in Example 4 except that 187.5 parts of 8-methyl-8-methoxycarbonyltetracyclo[4.4.0.1^2,5.1^7,10]-3-dodecene and 62.5 parts of tricyclo[4.3.0.1^2,5]deca-3,8-diene were used in place of 250 parts of 8-methyl-8-methoxycarbonyltetracyclo[4.4.0.1^2,5.1^7,10]-3-dodecene. The polymerization conversion rate of this polymerization reaction was 98%.
as §1, with “ring-opening copolymer” for “ring-opening polymer”, “conditions including” for “conditions of”

Where [7] appears, read: hydrogen introduced at 100° C., 10 MPa, 165° C. for 3 hours.

A value given as a limit tells only on which side of the number the result lay.

As to `[C-]#[O+].[Cl][RuH].c1ccc(P(c2ccccc2)c2ccccc2)cc1.c1ccc(P(c2ccccc2)c2ccccc2)cc1.c1ccc(P(c2ccccc2)c2ccccc2)cc1` [RuHCl(CO)(PPh3)3, reference compound], the “hydrogenation rate of the main chain of the copolymer” value (“hydrogenation rate … of the copolymer” below) in data set [1] came to 99.30%. Further, the “olefinic unsaturated bonds in the main chain hydrogenated (hydrogenation rate)” value in data set [2] (setting [7]) is at least 99.9%; in data set [2] (hydrogen introduction temperature 150° C., 600 parts toluene, gelation inhibitor), at least 99.9%; in data set [4] (hydrogen introduction temperature 100° C.), at least 99.9%; in data set [4] (hydrogen introduction temperature 150° C., 700 parts toluene), at least 99.9%. Besides, in data set [3], the “solubility to toluene at 20° C.” value is recorded as 0.03 % by weight. Moreover, in data set [3], the “saturation solubility to toluene at 25° C.” value is on record as 0.05 % by weight. Further, in data set [3] (temperature not given), the “saturation solubility to toluene” value was 0.05 % by weight. Besides, the “hydrogenation rate of the hydrogenated polymer” value in data set [5] was 99.75%.
With RuH(CO)[P(C6H5)]2(OCO-p-Ph-n-C5H13), the “olefinic unsaturated bonds in the main chain hydrogenated (hydrogenation rate)” value in data set [2] (setting [7]) is recorded as at least 99.9%. The “saturation solubility to toluene at 25° C.” value in data set [3] was 5 % by weight.
With RuH(OCOPh)(CO)(PPh3)2 [Example 1], in data set [3], the “solubility to toluene at 20° C.” value amounted to 0.5 % by weight. Moreover, the “hydrogenation rate of the hydrogenated polymer” value in data set [5] stood at 99.99%.
Regarding RuH(OCOPh-C5H11)(CO)(PPh3)2 [Example 2], the “hydrogenation rate … of the copolymer” value in data set [1] is listed as 99.93%. Moreover, the “solubility to toluene at 20° C.” value in data set [3] is reported as 1.0 % by weight. Also, the “hydrogenation rate of the hydrogenated polymer” value in data set [5] was determined as 99.95%. Besides, in data set [6], the “hydrogenation rate … of the copolymer” value is reported as 99.97% and the “hydrogenation rate of the unsaturated double bonds derived from the side chain of tricyclo[4.3.0.1^2,5]deca-3,8-diene” value is listed as at least 99.99%.
On to RuH(OCOPh-C8H17)(CO)(PPh3)2 [Example 3], for which the “solubility to toluene at 20° C.” value in data set [3] stood at 5.0 % by weight. The “hydrogenation rate of the hydrogenated polymer” value in data set [5] was 99.90%.

These data come from patent US20090176950A1, “METAL HYDRIDE COMPLEX, METHOD OF HYD[…]-OPENING POLY[…] OF CYCLOOLEFIN, AND PROCESS FOR PRODUCING PRODUCT OF HYD[…] RING-OPENING POLY[…] OF CYCLOOLEFIN” (JSR CORPORATION, priority 2005, published 2009).
